Measurements: US5872115A, “2-ureido-benzamide derivatives” (Grelan Pharmaceutical Co. Ltd., priority 1995, dated 1999)
pIC50: −log10 of the molar value.

How the values were obtained:
ACAT of HepG2 microsome = experiment: In-vitro test using Hep G2 microsome (ACAT inhibition); type: biochemical, human
Protocol: (1) In-vitro Test Using Hep G2 Microsome
ACAT enzyme fraction was prepared from microsome of human derived hepatoma Hep G2 cell according to Sandra's method [Journal of Lipid Research, 27, 875 (1986)].
Microsome was suspended at a concentration of 200 μg protein/20 μl in 0.1M phosphate buffer solution (pH7.4) and the suspension was preincubated at 37° C. for 5 minutes after addition of 10 μl of each test compound dissolved in 0.1M phosphate buffer solution containing bovine serum albmin (BSA). Then, the reaction was initiated by the addition of 5 nmoles of labeled [^14 C]-oleoyl-CoA dissolved in 20 μl of the said phosphate buffer solution containing BSA and the reaction was stopped by the addition of 20 μl of 2N HCl after 10 minutes. [^14 C] cholesterol-oleate formed was separated by thin-layer chromatography and the radioactivity was counted with liquid scintillation counter.
(§1) ACAT inhibitory activities of the test compounds were shown as IC50 values.

ACAT of THP-1 cells = biological target: T1, ACAT of THP-1 cells (Homo sapiens, UniProt P35610); experiment: In-vitro test using THP-1 intact cell (ACAT inhibition); type: cell-based; settings: read-out: IC50 THP1 (intact cell)
T1 construct: differentiated into macrophage-like cells by phorbol ester; endogenous in cells; host or cells: THP-1 (human leukemia), intact cells differentiated by phorbol ester
T1 sequence (P35610 1-550): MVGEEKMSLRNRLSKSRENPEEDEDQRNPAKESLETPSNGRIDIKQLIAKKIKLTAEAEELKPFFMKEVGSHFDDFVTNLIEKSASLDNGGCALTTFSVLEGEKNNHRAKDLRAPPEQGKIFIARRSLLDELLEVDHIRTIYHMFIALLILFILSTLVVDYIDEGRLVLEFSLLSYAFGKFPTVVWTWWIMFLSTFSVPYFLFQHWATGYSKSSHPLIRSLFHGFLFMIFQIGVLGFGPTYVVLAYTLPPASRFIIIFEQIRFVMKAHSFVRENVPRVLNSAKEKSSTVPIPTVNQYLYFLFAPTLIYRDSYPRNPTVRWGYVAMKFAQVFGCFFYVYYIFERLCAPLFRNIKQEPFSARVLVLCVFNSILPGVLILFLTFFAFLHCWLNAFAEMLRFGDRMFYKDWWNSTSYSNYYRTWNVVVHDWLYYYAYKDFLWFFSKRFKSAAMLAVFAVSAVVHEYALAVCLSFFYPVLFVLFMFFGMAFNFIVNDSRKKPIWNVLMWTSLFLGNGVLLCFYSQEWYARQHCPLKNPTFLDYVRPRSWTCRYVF
Protocol: (2) In-vitro Test Using THP-1 Intact Cell
About 2 million cells of human leukemia cell line, THP-1 were seeded in a well with 2 ml of medium and differentiated into macrophage-like cells by phorbol ester. Then, the cells were washed with phosphate-buffered saline (PBS) solution and the medium was replaced by fresh medium supplemented with 10% of lipoprotein-deficient serum. After the addition of each test compound dissolved in dimethyl sulfoxide and 100 μg protein-containing human low density lipoprotein (LDL), the reaction was initiated by the addition of 10 nmoles of labeled [^14 C]oleic acid and 10 nmoles of oleic acid complexed with BSA in PBS solution. After 22 hours, the reaction was stopped by removal the medium and CHCl3 -MeOH (2:1) were added to the cell suspension in order to extract lipids.
Intracellular [^14 C] cholesterol-oleate formed was separated by thin-layer chromatography and the radioactivity was counted with lipid scintillation counter.
as §1

ACAT of macrophage = experiment: In-vivo test using mouse peritoneal macrophages (ACAT inhibition); settings: male mice, compound in diet for 16 days
Protocol: (3) In-vivo Test Using Mouse Peritoneal Macrophages
Male mice were fed a standard powder diet containing the test compounds for 16 days. After 14 and 15 days on this diet, aggregated-LDL (containing 4 mg cholesterol) prepared from LDL receptor deficient KHC rabbit and [^14 C] oleic acid together with the said aggregated-LDL (containing 0.5 mg cholesterol) were injected into the peritoneal cavity of these animals, respectively. After 16 days on this treatment, peritoneal macrophages were harvested by peritoneal lavage with PBS solution and CHCl3 -MeOH (2:1) were added to the cell suspension in order to extract lipids. Formed [^14 C] cholesterol oleate was separated by thin-layer chromatography and the radioactivity was counted.
ACAT inhibitory activities of the test compounds were shown as inhibiting percentage referred to control group.

ACAT of macrophages = experiment: In vivo test using peritoneal macrophages in C57BL/6J mice (ACAT inhibition); design: species or system mouse; settings: Experiment 1; female C57BL/6J mice, 30 mg/kg/day per os for 4 days
Protocol: (6) In Vivo Test Using Peritoneal Macrophages in C57BL/6J Mice
A standard pellet diet fed female C57BL/6J mice were administered at 10 a.m. per os 30 mg/kg/day of oral suspension (1% CMC-Na 0.2% Tween 80) for 4 days. Thioglycollate and [^14 C] cholesterol were injected […], mice were sacrificed for the collection of peritoneal macrophages. Lipid was extracted, formed [^14 C] cholesterol-ester was separated by thin-layer chromatography and radioactivity was counted as described above in method (3).
In vivo ACAT inhibitory activities on macrophages were expressed as percentage of inhibition compared to control group.

[1] = Acute toxicity, male ICR strain mouse; type: in vivo; settings: 1000 mg/kg orally, seven days after administration
Protocol: (1) Acute toxicity: Nine compounds (Example Nos. 1, 2, 5, 6, 12, 19, 28, 31 and 45) were tested by using male ICR strain mouse weighing 23.0±0.7 g.

| SMILES | pIC50 (ACAT of HepG2 microsome) | pIC50 (ACAT of THP-1 cells) | Inhibition rate (macrophages) (ACAT of macrophage) | Inhibition rate (macrophages) (ACAT of macrophages) | macroscopic changes on any organs at autopsy [1] |
| --- | --- | --- | --- | --- | --- |
| CCCCCCCNC(=O)Nc1ccc(N(C)C)cc1C(=O)NCC1CCN(C(c2ccccc2)c2ccccc2)CC1 [Example 1, 2-(N'-n-Heptylureido)-5-dimethylamino-N-[(1-diphenylmethylpiperidin-4-yl)methyl]-benzamide] | 6.22 | 7.15 | 65% | 81.0% | no macroscopic changes were observed |
| CCCCCCCNC(=O)Nc1ccccc1C(=O)NCC1CCN(C(c2ccccc2)c2ccccc2)CC1 [Example 5, 2-(N'-n-Heptylureido)-N-[(1-diphenylmethylpiperidin-4-yl)methyl]benzamide] | 5.80 | 7.15 | 64% |  | no macroscopic changes were observed |
